Source: patent US8293729B2 (Boehringer Ingelheim International GmbH, priority 2009, dated 2012)

molecular target: T1, human GPR119 receptor (Homo sapiens, UniProt Q8TDV5, S329A/T327A); assay: cAMP assay (LANCE cAMP-384) in HEK293 cells stably expressing mutant human GPR119 receptor; type: cell-based; conditions: HEK293, 20 min; single concentration 10 μM; given where no EC50 value could be determined; read-out: % stimulation at 10 μM
T1 construct: N-terminal leader […]; expressed in transfected cells
T1 sequence (Q8TDV5 with tags, fused parts or gaps T327A/S329A): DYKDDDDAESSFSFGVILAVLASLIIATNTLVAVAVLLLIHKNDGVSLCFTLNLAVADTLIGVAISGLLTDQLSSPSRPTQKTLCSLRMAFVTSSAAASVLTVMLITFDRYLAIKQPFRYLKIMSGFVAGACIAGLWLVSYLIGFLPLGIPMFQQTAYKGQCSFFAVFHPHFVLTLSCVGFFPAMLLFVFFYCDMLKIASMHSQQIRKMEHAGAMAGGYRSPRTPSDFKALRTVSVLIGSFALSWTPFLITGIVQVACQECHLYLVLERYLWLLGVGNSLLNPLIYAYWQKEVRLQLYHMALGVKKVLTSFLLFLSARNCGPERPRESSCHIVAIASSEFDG
Procedure: Quantitative detection of cAMP accumulation from cells expressing human GPR119 receptor was achieved using Perkin Elmer's LANCE cAMP-384 Kit (Cat#AD0264) according to the manufacturer's protocol. Briefly, HEK293 cells stably expressing a mutant form of the human GPR119 receptor (Methionine 1 replaced with the amino acid sequence […] (SEQ ID NO: 1), and T327 & S329 changed to alanines) were grown to 50-70% confluency in cell culture media (DMEM, 10% heat inactivated Fetal Bovine Serum, 50 I.U./mL penicillin, 50 μg/mL streptomycin, 10 mM HEPES, 20 μg/mL G418 Sulfate). On the day of the assay, GPR119 stable HEK293 cells were lifted from the tissue culture plate and 1000 cells/well were incubated along with various concentrations of test compounds for 20 min at 37° C. Detection Buffer (50mM HEPES, 10mM calcium chloride, 0.35% Triton X-100, 1 mg/mL BSA) containing cAMP-specific antibody was then added to all wells and allowed to equilibrate in the dark for 10 minutes at room temperature. Upon equilibration, Detection Buffer containing europium-labeled cAMP tracer complex was added to all wells and allowed to react for 1 hour at room temperature. After 1 hour, bound europium-labeled cAMP tracer was measured using a Perkin Elmer ViewLux. The quantity of cAMP generated in each well was derived from a standard curve. EC50 was determined using nonlinear regression analysis of the cAMP values over a range of agonist concentration (12 points spanning the range from 30 μM to 100pM).
For some compounds for which no EC50 value could be determined, the efficacy is provided at a single concentration (10 μM) yielding % stimulation values.

| Compound | activation at 10 µM |
| --- | --- |
| Cc1cccnc1N1CCC(=NOC2CCN(C(=O)OC(C)C)CC2)CC1 [Example 2-7] | 55% |
| CC(C)OC(=O)N1CCC(ON=C2CCN(c3nccc(CO)c3F)CC2)CC1 [Example 2-64] | 79% |

same assay, conditions: cAMP accumulation, HEK293 cells stably expressing mutant human GPR119; read-out: EC50

| Compound | EC50 |
| --- | --- |
| CC(C)OC(=O)N1CCC(ON=C2CCN(c3cc(F)c(C4SCCC[S+]4[O-])cc3F)CC2)CC1 (mixture of isomers) [Example 21-1, 4-{1-[2,5-Difluoro-4-(1-oxo-1 lambda*4*-[1,3]dithian-2-yl)-phenyl]-piperidin-4-ylideneaminooxy}-piperidine-1-carboxylic acid isopropyl ester] | 143 nM |
| CC(C)(C)OC(=O)N1CCC(ON=C2CCN(c3ccc(S(C)(=O)=O)cc3F)CC2)CC1 [Example 1-1, tert-Butyl 4-[1-(2-Fluoro-4-methanesulfonylphenyl)piperidin-4-ylideneaminooxy]piperidine-1-carboxylate] | 29 nM |
| CC(C)OC(=O)N1CCC(ON=C2CCN(c3ccc(S(C)(=O)=O)cc3F)CC2)CC1 [Example 2-1, 4-[1-(2-Fluoro-4-methanesulfonyl-phenyl)-piperidin-4-ylideneaminooxy]-piperidine-1-carboxylic acid isopropyl ester] | 47 nM |
| CC(C)OC(=O)N1CCC(ON=C2CCN(c3cc(F)c(C#N)cc3F)CC2)CC1 [Example 2-2] | 397 nM |
| CC(C)OC(=O)N1CCC(ON=C2CCN(c3cc(F)c(C=O)cc3F)CC2)CC1 [Example 2-3] | 14 nM |
| CC(C)OC(=O)N1CCC(ON=C2CCN(c3ccnc(O)c3)CC2)CC1 [Example 2-4] | > 10000 nM |
| Cc1cc(N2CCC(=NOC3CCN(C(=O)OC(C)C)CC3)CC2)ccn1 [Example 2-6] | 1480 nM |
| Cc1cccc(N2CCC(=NOC3CCN(C(=O)OC(C)C)CC3)CC2)n1 [Example 2-8] | > 10000 nM |
| CC(C)OC(=O)N1CCC(ON=C2CCN(c3ccncc3)CC2)CC1 [Example 2-9] | > 10000 nM |
| CC(C)OC(=O)N1CCC(ON=C2CCN(c3nccnc3Cl)CC2)CC1 [Example 2-10] | 363 nM |
| CC(C)OC(=O)N1CCC(ON=C2CCN(c3cnccn3)CC2)CC1 [Example 2-11] | > 10000 nM |
| CC(C)OC(=O)N1CCC(ON=C2CCN(c3ccc(I)cn3)CC2)CC1 [Example 2-12] | 2360 nM |
| CC(C)OC(=O)N1CCC(ON=C2CCN(c3ncc([N+](=O)[O-])s3)CC2)CC1 [Example 2-13] | 5110 nM |
| CC(C)OC(=O)N1CCC(ON=C2CCN(c3nncs3)CC2)CC1 [Example 2-14] | > 10000 nM |
| CC(C)OC(=O)N1CCC(ON=C2CCN(c3ncnc4ccsc34)CC2)CC1 [Example 2-15] | 4780 nM |
| CC(C)OC(=O)N1CCC(ON=C2CCN(c3ccc(S(C)(=O)=O)cc3)CC2)CC1 [Example 2-16] | 328 nM |
| CC(C)OC(=O)N1CCC(ON=C2CCN(c3ncc(Br)cn3)CC2)CC1 [Example 2-17] | 1180 nM |
| CC(C)OC(=O)N1CCC(ON=C2CCN(c3ncc(C#N)c(N)n3)CC2)CC1 [Example 2-18] | > 10000 nM |
| CC(C)OC(=O)N1CCC(ON=C2CCN(c3cc(F)ccc3C=O)CC2)CC1 [Example 2-19] | 345 nM |
| CC(C)OC(=O)N1CCC(ON=C2CCN(c3ccc(C=O)c(F)c3)CC2)CC1 [Example 2-20] | 703 nM |

| Compound | EC50 |
| --- | --- |
| CC(C)OC(=O)N1CCC(ON=C2CCN(c3cc(Cl)c(F)cc3C(=O)O)CC2)CC1 [Example 2-21] | > 10000 nM |
| CC(C)OC(=O)N1CCC(ON=C2CCN(c3ccc(C=O)cc3F)CC2)CC1 [Example 2-22] | 318 nM |
| CC(=O)c1cc(F)c(N2CCC(=NOC3CCN(C(=O)OC(C)C)CC3)CC2)cc1F [Example 2-23] | 375 nM |
| CC(C)OC(=O)N1CCC(ON=C2CCN(c3nc(C=O)c(Cl)s3)CC2)CC1 [Example 2-25] | > 10000 nM |
| CC(C)OC(=O)N1CCC(ON=C2CCN(c3ccc(CO)c(Cl)n3)CC2)CC1 [Example 2-26] | 758 nM |
| CC(C)OC(=O)N1CCC(ON=C2CCN(c3nc(Cl)ccc3CO)CC2)CC1 [Example 2-27] | > 10000 nM |
| CC(C)OC(=O)N1CCC(ON=C2CCN(c3ccc(C=O)cc3)CC2)CC1 [Example 2-28] | > 10000 nM |
| Cc1cc(C=O)ccc1N1CCC(=NOC2CCN(C(=O)OC(C)C)CC2)CC1 [Example 2-29] | 3170 nM |
| CC(C)OC(=O)N1CCC(ON=C2CCN(c3ccc(C=O)c(O)c3)CC2)CC1 [Example 2-30] | > 10000 nM |
| CC(C)OC(=O)N1CCC(ON=C2CCN(c3ccc(C=O)cc3Cl)CC2)CC1 [Example 2-31] | 1250 nM |
| CC(C)OC(=O)N1CCC(ON=C2CCN(c3cc(F)c(C(N)=O)cc3F)CC2)CC1 [Example 2-32] | 25 nM |
| COC(=O)c1nc(Cl)c(N2CCC(=NOC3CCN(C(=O)OC(C)C)CC3)CC2)nc1N [Example 2-34] | > 10000 nM |
| CC(C)OC(=O)N1CCC(ON=C2CCN(c3ccc(S(N)(=O)=O)cc3F)CC2)CC1 [Example 2-36] | 130 nM |
| CC(C)OC(=O)N1CCC(ON=C2CCN(c3ncccc3F)CC2)CC1 [Example 2-37] | 630 nM |
| CC(C)OC(=O)N1CCC(ON=C2CCN(c3ccc4c(c3)CCC4=O)CC2)CC1 [Example 2-38] | > 10000 nM |
| CC(C)OC(=O)N1CCC(ON=C2CCN(c3c(Cl)cncc3Cl)CC2)CC1 [Example 2-39] | 1680 nM |
| CC(C)OC(=O)N1CCC(ON=C2CCN(c3cc(F)c(Br)cc3F)CC2)CC1 [Example 2-40] | 2000 nM |
| CC(C)OC(=O)N1CCC(ON=C2CCN(c3cc(F)c([S+](C)[O-])cc3F)CC2)CC1 (centres unmarked) [Example 2-41] | 58 nM |
| CC(C)OC(=O)N1CCC(ON=C2CCN(c3nccc(N(C)C)n3)CC2)CC1 [Example 2-44] | > 10000 nM |
| CC(C)OC(=O)N1CCC(ON=C2CCN(c3ccnc(Cl)n3)CC2)CC1 [Example 2-46] | 1880 nM |

| Compound | EC50 |
| --- | --- |
| CC(C)OC(=O)N1CCC(ON=C2CCN(c3nccc(Cl)n3)CC2)CC1 [Example 2-47] | 2010 nM |
| CCOC(=O)CC(=O)c1cc(F)c(N2CCC(=NOC3CCN(C(=O)OC(C)C)CC3)CC2)nc1Cl [Example 2-48] | 146 nM |
| CC(C)OC(=O)N1CCC(ON=C2CCN(c3nc(Cl)ncc3Cl)CC2)CC1 [Example 2-49] | 170 nM |
| CC(C)OC(=O)N1CCC(ON=C2CCN(c3ncc(Cl)c(Cl)n3)CC2)CC1 [Example 2-50] | > 10000 nM |
| Cc1cnccc1N1CCC(=NOC2CCN(C(=O)OC(C)C)CC2)CC1 [Example 2-51] | 951 nM |
| Cc1c(Cl)ncnc1N1CCC(=NOC2CCN(C(=O)OC(C)C)CC2)CC1 [Example 2-52] | 653 nM |
| CC(C)OC(=O)N1CCC(ON=C2CCN(c3ccc(CO)cc3)CC2)CC1 [Example 2-53] | > 10000 nM |
| CC(C)OC(=O)N1CCC(ON=C2CCN(c3ncc(Br)c(N(C)C)n3)CC2)CC1 [Example 2-54] | > 10000 nM |
| CSc1nc(N2CCC(=NOC3CCN(C(=O)OC(C)C)CC3)CC2)ncc1Br [Example 2-55] | > 10000 nM |
| COc1nc(N2CCC(=NOC3CCN(C(=O)OC(C)C)CC3)CC2)ncc1Br [Example 2-56] | > 10000 nM |
| CC(C)OC(=O)N1CCC(ON=C2CCN(c3c(F)c(F)c(C(N)=O)c(F)c3F)CC2)CC1 [Example 2-57] | 56 nM |
| CC(C)OC(=O)N1CCC(ON=C2CCN(c3ncnc(F)c3F)CC2)CC1 [Example 2-58] | 603 nM |
| CC(C)OC(=O)N1CCC(ON=C2CCN(c3c(C(=O)O)ccnc3Cl)CC2)CC1 [Example 2-59] | > 10000 nM |
| CC(C)OC(=O)N1CCC(ON=C2CCN(c3cc(F)c(S(C)(=O)=O)cc3F)CC2)CC1 [Example 2-60] | 28 nM |
| CC(C)OC(=O)N1CCC(ON=C2CCN(c3cc4[nH]cnc(=O)c4cc3F)CC2)CC1 [Example 2-61] | > 10000 nM |
| CC(C)OC(=O)N1CCC(ON=C2CCN(c3cc(F)c([N+](=O)[O-])cc3F)CC2)CC1 [Example 2-62] | 304 nM |
| CC(C)OC(=O)N1CCC(ON=C2CCN(c3cc(F)c(N(S(C)(=O)=O)S(C)(=O)=O)cc3F)CC2)CC1 [Example 2-63] | > 10000 nM |
| Cc1cc(C(=O)O)nc(N2CCC(=NOC3CCN(C(=O)OC(C)C)CC3)CC2)n1 [Example 2-65] | > 10000 nM |
| CC(C)OC(=O)N1CCC(ON=C2CCN(c3nccc(C(F)(F)F)n3)CC2)CC1 [Example 2-66] | > 10000 nM |

same assay, conditions: the 31st table; read-out: EC50

| Compound | EC50 |
| --- | --- |
| CC(C)OC(=O)N1CCC(ON=C2CCCN(c3ccc(S(C)(=O)=O)cc3F)C2)CC1 (mixture of isomers) [Example 61-1, 4-[1-(2-Fluoro-4-methanesulfonyl-phenyl)-piperidin-(3Z)-ylideneaminooxy]-piperidine-1-carboxylic acid isopropyl ester] | > 10000 nM |
